Results as given in patent publication US6166051A, “Thiol derivatives with metallopeptidase (ACE/NEP) inhibitory activity” (Zambon Group S.p.A., priority 1995, dated 2000).

Legend:
[1] = biological target: T1, NEP (neutral endopeptidase enzyme) (Rattus norvegicus, UniProt P07861); test: NEP-inhibitory activity in rat kidney cortex membranes ([3H][Leu5]-enkephaline degradation); type: biochemical; details: in vitro, [3H][Leu5]-enkephaline 15 nM, 20 minutes at 30° C., pH 7.4
T1 construct: from tissue; host or cells: kidney cortex membranes of male Sprague-Dawley rats
T1 sequence (P07861 1-750): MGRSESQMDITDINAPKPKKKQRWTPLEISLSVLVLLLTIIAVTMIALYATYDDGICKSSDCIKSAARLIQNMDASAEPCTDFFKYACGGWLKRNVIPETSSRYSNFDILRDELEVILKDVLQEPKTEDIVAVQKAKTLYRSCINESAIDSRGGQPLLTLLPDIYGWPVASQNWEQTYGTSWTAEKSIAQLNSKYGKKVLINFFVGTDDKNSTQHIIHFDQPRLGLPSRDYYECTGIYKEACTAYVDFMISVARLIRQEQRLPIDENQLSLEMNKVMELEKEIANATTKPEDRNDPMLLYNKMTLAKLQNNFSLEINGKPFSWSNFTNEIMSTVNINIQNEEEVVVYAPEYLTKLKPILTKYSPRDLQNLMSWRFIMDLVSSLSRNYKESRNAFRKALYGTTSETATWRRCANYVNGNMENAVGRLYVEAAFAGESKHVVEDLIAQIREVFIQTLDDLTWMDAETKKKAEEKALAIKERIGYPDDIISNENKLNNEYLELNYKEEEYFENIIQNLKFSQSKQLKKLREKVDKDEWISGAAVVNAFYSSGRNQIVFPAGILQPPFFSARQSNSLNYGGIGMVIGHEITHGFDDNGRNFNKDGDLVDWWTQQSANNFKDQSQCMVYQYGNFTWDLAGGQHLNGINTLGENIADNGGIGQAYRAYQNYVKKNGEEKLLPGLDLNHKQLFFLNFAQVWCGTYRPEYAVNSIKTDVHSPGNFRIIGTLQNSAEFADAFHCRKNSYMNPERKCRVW
Experimental: a) NEP-inhibitory Activity
The NEP-inhibitory activity was evaluated in rat kidney cortex membranes prepared according to the procedure described by T. Maeda et al. in Biochim Biophys. Acta 1983, 731(1), 115-120.
Kidneys were removed from male Sprague-Dawley rats weighing approximately 300 g and kept at 4° C.
Kidney cortex was carefully removed, finely minced and suspended into a homogenization buffer (10 mM sodium phosphate pH 7.4 containing 1 mM MgCl2, 30 mM NaCl, 0.02% NaN3) 1:15 weight/volume.
The tissue was then cold homogenized for 30 seconds using an Ultra-Turrax homogenizer.
Approximately 10 ml of homogenate were layered over 10 ml of sucrose (41% weight/volume) and centrifuged at 31200 rpm for 30 minutes at 4° C. in a fixed angle rotor.
The membranes were collected from the buffer/sucrose interface, washed twice with 50 mM TRIS/HCl buffer (pH 7.4) and resuspended into the same buffer for the storage of aliquots at -80° C. until use.
The NEP-inhibitory activity was evaluated according to the method described by C. Llorens et aL, in Eur. J. Pharmacol., 69, (1981), 113-116, as reported hereinafter.
Aliquots of the membrane suspension prepared as above described (concentration 5 μg/ml of proteins) were preincubated in the presence of an aminopeptidase inhibitor (Bestatin--1 mM) for 10 minutes at 30° C. [^3 H][Leu^5 ]-enkephaline (15 nM) and buffer TRIS/HCl pH 7.4 (50 mM) were added in order to obtain a final volume of 100 μl.
The enzymatic reaction was stopped by adding HCl 0.1M (100 μl) after 20 minutes of incubation at 30° C.
The formation of the metabolite [^3 H]Tyr-Gly-Gly was quantified, after separation of the unreacted substrate by chromatography on polystyrene columns (Porapak Q), by measuring the relative radioactivity through liquid scintillation.
The percentage of inhibition of the metabolite formation in the membrane preparations treated with the compounds of formula I and with the comparative compounds with respect to the untreated membrane preparations was expressed as IC50 (nM) value.

[2] = biological target: T2, ACE (angiotensin converting enzyme) (Oryctolagus cuniculus, UniProt P12822); test: ACE-inhibitory activity (FAPGG substrate, absorbance at 340 nm); type: biochemical; details: in vitro, ACE purified from rabbit lung, 37° C.
T2 construct: purchased SIGMA; host or cells: rabbit lung
T2 sequence (P12822 34-1310): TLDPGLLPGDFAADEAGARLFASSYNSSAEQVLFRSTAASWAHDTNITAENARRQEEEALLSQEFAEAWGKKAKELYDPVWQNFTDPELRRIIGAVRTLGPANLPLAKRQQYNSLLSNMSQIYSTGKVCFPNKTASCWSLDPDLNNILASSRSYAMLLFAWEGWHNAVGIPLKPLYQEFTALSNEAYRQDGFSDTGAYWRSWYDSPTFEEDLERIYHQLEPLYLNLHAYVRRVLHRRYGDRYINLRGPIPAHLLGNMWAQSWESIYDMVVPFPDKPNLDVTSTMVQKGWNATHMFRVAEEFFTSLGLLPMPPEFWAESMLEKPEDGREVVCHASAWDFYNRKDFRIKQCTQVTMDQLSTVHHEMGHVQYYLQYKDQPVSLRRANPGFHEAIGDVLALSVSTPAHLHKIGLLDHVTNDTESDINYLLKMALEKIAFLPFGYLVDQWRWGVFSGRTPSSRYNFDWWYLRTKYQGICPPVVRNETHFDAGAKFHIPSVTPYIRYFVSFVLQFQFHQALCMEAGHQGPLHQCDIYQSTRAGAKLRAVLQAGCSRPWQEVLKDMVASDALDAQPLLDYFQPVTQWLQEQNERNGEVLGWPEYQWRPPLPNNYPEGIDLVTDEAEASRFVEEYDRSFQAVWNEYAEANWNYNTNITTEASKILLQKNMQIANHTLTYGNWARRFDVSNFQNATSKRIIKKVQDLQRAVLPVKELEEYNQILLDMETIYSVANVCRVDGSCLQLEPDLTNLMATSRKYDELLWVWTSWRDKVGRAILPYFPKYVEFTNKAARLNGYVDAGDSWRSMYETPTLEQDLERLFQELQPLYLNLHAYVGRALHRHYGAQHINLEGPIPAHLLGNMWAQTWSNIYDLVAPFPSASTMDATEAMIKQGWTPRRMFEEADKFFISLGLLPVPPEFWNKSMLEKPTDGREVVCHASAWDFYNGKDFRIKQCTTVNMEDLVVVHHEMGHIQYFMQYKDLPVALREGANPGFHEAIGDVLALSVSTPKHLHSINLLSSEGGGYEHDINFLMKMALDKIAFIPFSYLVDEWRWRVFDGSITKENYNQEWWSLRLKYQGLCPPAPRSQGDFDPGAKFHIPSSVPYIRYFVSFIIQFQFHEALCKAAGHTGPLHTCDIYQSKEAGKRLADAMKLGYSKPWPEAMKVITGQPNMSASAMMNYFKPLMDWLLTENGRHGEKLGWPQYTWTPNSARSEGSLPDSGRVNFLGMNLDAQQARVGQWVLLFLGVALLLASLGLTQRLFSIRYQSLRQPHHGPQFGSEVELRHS
Experimental: b) ACE-inhibitory Activity
50 μM of ACE (250 μmU/ml purified by lung rabbit, EC 3.4.15.1 SIGMA) were preincubated with 50 μl of the compound of formula I or of the comparison compound or related vehicle in thermostated cuvettes at 37° C.
The reaction was started by adding 500 μl of furylacryloylphenylalanylglycylglycine 0.8 mM (FAPGG-SIGMA).
Contemporaneously, by using a Beckman DU-50 spectrophotometer provided with a program for calculating delta A/minutes and regression coefficients of the enzyme kinetics curyes, the absorbance at 340 nm was recorded in continuo for 5 minutes.
The percentage of inhibition in the preparations incubated with the compounds of formula I or with the comparative compounds with respect to the preparations incubated with the vehicle was expressed as IC50 (nM) value.

NEP-inhibitory activity IC50 (nM) [1]	IC50 [1]	IC50 [2]	Structure (SMILES)
not active			C[C@H](CS)C(=O)N1CCC[C@H]1C(=O)O [Captopril, reference compound]
	4.7 nM	12 nM	O=C(N[C@@H](Cc1cscn1)C(=O)O)C(CS)Cc1ccccc1 (stereo partly drawn) [compound 4, N-(2-phenylmethyl-3-mercaptopropionyl)-(4-thiazolyl)-L-alanine]
	5.5 nM	6.5 nM	O=C(N[C@@H](Cc1cccs1)C(=O)O)C(CS)Cc1ccccc1 (stereo partly drawn) [compound 5, N-(2-phenylmethyl-3-mercaptopropionyl)-(2-thienyl)-L-alanine]
	7.1 nM	23 nM	O=C(N[C@@H](Cc1ccccn1)C(=O)O)C(CS)Cc1ccccc1 (stereo partly drawn) [compound 6, N-(^2-phenylmethyl-3-mercaptopropionyl)-(2-pyridyl)-L-alanine]
